The source of these data is the SangsterLogP compilation.

The series can be described thus: method code SF-CR, from PMID: 5159517.

Usually logP stands for the decadic logarithm of the partition coefficient of the neutral form, usually between octanol and water. Read a high logP as a more lipophilic compound. In turn, `COc1cnc(NS(=O)(=O)c2ccc(N)cc2)nc1` displayed a logP of 0.41.
